# Experimental data published in US4783452A, “Platinum coordination compounds” (Johnson Matthey Public Limited Company, priority 1985, dated 1988).
# System: ADJ/PC6 tumour
# Assay: anti-tumour activity against ADJ/PC6 tumour implanted into female Balb C- mice
# Assay type: in vivo
# Design: LD50: unit not given here
# Conditions: for TI / ED90: ADJ/PC6 tumour; for ED90: in mg/kg (unit assumed)
# Experimental: Compounds were administered both parenterally (IP) and orally (PO).
Compound,LD50 (IP (parenteral)),TI (IP (parenteral)),ED90 (IP (parenteral)),LD50 (PO (oral)),TI (PO (oral)),ED90 (PO (oral))
"CC1(C)OC(CN)C(CN)O1.[Br][Pt][Br] (racemic) [cis-dibromo[4,5-bis(aminomethyl)-2,2-dimethyl-1,3-dioxolane]platinum (II)]",21,5.2,4,–,–,–
"CC1(C)OC(CN)C(CN)O1.[Cl][Pt][Cl] [cis-dichloro[(4R,5R)-4,5-bis-(aminomethyl)-2,2-dimethyl-1,3-] [cis-dichloro[(4R,5R)-4,5-bis-(aminomethyl)-2,2-dimethyl-1,3-dioxolane]platinum (II)]",35,22.6,1.6,1100,122,9
"CC1(C)OC(CN)C(CN)O1.[Cl][Pt][Cl] [cis-dichloro[(4S,5S)-4,5-bis-(aminomethyl)-2,2-dimethyl-1,3-] [cis-dichloro[(4S,5S)-4,5-bis-(aminomethyl)-2,2-dimethyl-1,3-dioxolane]platinum (II)]",35,23.9,1.46,1130,43.5,26
"[Cl][Pt]1([Cl])[NH]CC2OC(c3ccccc3)OC2C[NH]1 [cis-dichloro[(4S,5S)-4,5-bis-(aminomethyl)-2-phenyl-1,3-dioxolane]platinum (II)]",> 800,> 26,30,> 1600,> 1,~ 1600
"cis-dichloro[2,3-dihydroxy-1,2-diamino butane)-platinum (II) [reference compound]",> 400,> 1,380,> 800,–,–
